Measured values published in US6627650B2, “Indenoindolone compounds” (Les Laboratoires Servier, priority 2001, dated 2003).
pIC50: −log10 of the molar value. Counter-ions that a name gives are not always drawn. Like-named read-outs stand apart in the source and are kept apart here.

What was measured:
A-431 = test: In vitro cytotoxicity, microculture tetrazolium assay, A-431; type: cell-based, human; conditions: read-out: IC50 A-431
Method: (§1) Five cell lines were used:
1 human epidermoid carcinoma, A-431.
(§2) The cells are cultured in RPMI 1640 complete culture medium comprising 10% fetal calf serum, 2 mM glutamine, 50 units/ml of penicillin, 50 μg/ml of streptomycin and 10 mM Hepes, pH 7.4. The cells are distributed on microplates and are exposed to the cytotoxic compounds. The cells are then incubated for four doubling periods (2 days: L1210, P388, or 4 days: A549, HT29, A-431). The number of viable cells is then quantified by a colorimetric assay, the microculture tetrazolium assay (Cancer Res. 1987, 47 939-942).
(§3) The results are expressed as IC50, the concentration of product that inhibits the proliferation of the treated cells by 50% compared with the untreated cells.

HT29 = test: In vitro cytotoxicity, microculture tetrazolium assay, HT29; type: cell-based, human; conditions: HT-29, 96 h, read-out: IC50 HT29
Method: as §1
1 human colon carcinoma, HT29.
as §2, §3

A549 = test: In vitro cytotoxicity, microculture tetrazolium assay, A549; type: cell-based, human; conditions: read-out: IC50 A549
Method: as §1
1 non-small-cell human lung carcinoma, A549.
as §2, §3

L1210 cells = test: Action on the cell cycle (L1210), flow cytometry; type: cell-based, murine; conditions: concentration 0.25 μM, after 21 hours (control: 20%)
Method: L1210 cells are incubated for 21 hours at 37° C. in the presence of various concentrations of compound tested. The cells are then fixed using 70% ethanol (v/v), washed twice in PBS and incubated for 30 minutes at 20° C. in PBS that contains 100 μg/ml of RNAse and 50 μg/ml of propidium iodide. The distribution of the cells in the various phases of the cell cycle are then analysed by flow cytometry. The results are expressed as a percentage of the cells that have accumulated in the G2+M phase after 21 hours compared with the control (control: 20%). By way of example, at a concentration of 0.25 μM the compounds of Examples 1 and 18 induce a 75% accumulation of the cells in the G2+M phase after 21 hours.

C38 colon carcinoma = test: In vivo anti-tumour activity on established C38 colon carcinoma; conditions: from a dose of 25 mg/kg, i.v. once a week for 3 weeks (days 10, 17 and 24), B6D2F1 mice, subcutaneous C38
Method: Fragments of C38 colon carcinoma weighing approximately 30 mg were grafted subcutaneously on day 0 onto B6D2F1 mice (Iffa Credo, France). After growth of the tumour, the mice were separated into control (18 animals) and treated (6 to 7 animals) groups, which were homogeneous in respect of the tumour size. The products were administered by the i.v. route once a week for 3 weeks (on days 10, 17 and 24) at their maximum tolerated dose (MTD), MTD/2 and MTD/4.
The tumours were measured twice per week and the tumour volumes were calculated according to the formula: volume (mm^3)=length (mm)×width^2 (mm^2)/2.
The anti-tumour activity is expressed as % T/C: [formula]
VO and Vt denoting, respectively, the initial volume of the tumour and its volume at the time of measurement t.
The optimum dose is the dose that yields the lowest T/C without toxicity (premature death or loss of weight greater than 20%).

L1210 = test: In vitro cytotoxicity, microculture tetrazolium assay, L1210; type: cell-based; conditions: Mus musculus, 48 h; L1210 murine leukaemia, 2 days incubation, inhibition of proliferation
Method: as §1, §2, §3

P388 = test: In vitro cytotoxicity, microculture tetrazolium assay, P388; type: cell-based; conditions: Mus musculus, 48 h; P388 murine leukaemia, 2 days incubation, inhibition of proliferation
Method: as §1, §2, §3

Row | Compound | pIC50 (A-431; Homo sapiens, A-431, 96 h) | pIC50 (HT29; Homo sapiens) | pIC50 (A549; Homo sapiens, A549, 96 h) | accumulation of the cells in the G2+M phase (L1210 cells) | pIC50 (A-431; 96 h, A-431 human epidermoid carcinoma, 4 days incubation) | pIC50 (HT29; HT29 human colon carcinoma, 4 days incubation) | pIC50 (A549; 96 h, A549 non-small-cell human lung carcinoma, 4 days incubation) | T/C (tumour volume) (C38 colon carcinoma) | pIC50 (L1210) | pIC50 (P388)
1 | C#CC(O/N=C1/c2cc(OC)c(OC)cc2-c2[nH]c3ccc(OCCN(C)C)cc3c21)c1ccccc1 (centres unmarked) [Example 1, (10Z)-8-(2-Dimethylaminoethoxy)-2,3-dimethoxyindeno[1,2-b]indole-10(5H)-one O-(1-Phenyl-2-Propynyl)oxime Hydrochloride] | 7.06 | 6.61 | 7.15 | 75% |  |  |  |  |  | 
2 | C#CCO/N=C1/c2cc(OC)c(OC)cc2-c2[nH]c3ccc(OCCN(C)C)cc3c21.Cl [Example 18, (10Z)-8-(2-Dimethylaminoethoxy)-2,3-dimethoxyindeno[1,2-b]indole-10(5H)-one O-(2-Propynyl)oxime Hydrochloride] |  |  |  | 75% | 6.76 | 6.74 | 7.00 | 24% | 6.98 | 6.62
